Results on 20 molecules are retold here after US20230151003A1, “COMPOUNDS AND METHODS OF USE” (Exelixis, Inc., priority 2020, published 2023).

The target of assay [1] is T1, Mer (Homo sapiens, UniProt Q12866).
T1 construct: host or cells: 293A cells (Thermo Fisher #R70507)
T1 sequence (Q12866 21-999): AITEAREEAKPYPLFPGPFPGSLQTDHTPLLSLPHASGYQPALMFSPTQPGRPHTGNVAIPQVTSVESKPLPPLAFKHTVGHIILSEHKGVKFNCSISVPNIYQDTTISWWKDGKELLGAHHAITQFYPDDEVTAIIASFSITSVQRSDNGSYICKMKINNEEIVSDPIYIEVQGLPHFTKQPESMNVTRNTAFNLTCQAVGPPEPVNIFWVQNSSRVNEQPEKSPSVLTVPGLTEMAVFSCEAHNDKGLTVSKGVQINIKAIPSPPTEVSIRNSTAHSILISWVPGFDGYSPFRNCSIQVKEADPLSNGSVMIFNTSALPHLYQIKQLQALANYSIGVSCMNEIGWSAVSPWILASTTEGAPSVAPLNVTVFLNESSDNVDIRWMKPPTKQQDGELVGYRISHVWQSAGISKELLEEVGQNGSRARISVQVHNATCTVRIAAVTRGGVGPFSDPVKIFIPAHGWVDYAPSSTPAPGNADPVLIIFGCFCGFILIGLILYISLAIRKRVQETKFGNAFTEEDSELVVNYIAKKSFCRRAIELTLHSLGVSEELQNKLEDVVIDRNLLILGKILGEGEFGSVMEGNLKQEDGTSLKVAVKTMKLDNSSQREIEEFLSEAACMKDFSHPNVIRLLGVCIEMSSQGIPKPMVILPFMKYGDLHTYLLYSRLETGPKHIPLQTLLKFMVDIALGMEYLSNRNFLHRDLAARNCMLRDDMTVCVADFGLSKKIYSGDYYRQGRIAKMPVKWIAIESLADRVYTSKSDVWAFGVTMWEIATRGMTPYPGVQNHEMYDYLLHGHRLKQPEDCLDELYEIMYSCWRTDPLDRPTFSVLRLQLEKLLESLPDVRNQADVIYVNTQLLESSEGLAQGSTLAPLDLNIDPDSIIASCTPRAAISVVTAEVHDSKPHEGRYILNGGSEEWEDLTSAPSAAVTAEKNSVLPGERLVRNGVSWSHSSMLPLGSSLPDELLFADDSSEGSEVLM
The assay can be described thus: Mer autophosphorylation ELISA in transient transfected 293A cells. Format: cell-based. The conditions noted are these: Table 3 Cellular Activities; MERTK-transfected 293A cells, phospho-Mer ELISA. An outline of the steps:
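Phospho-Mer quantified by ELISA in lysates of transiently MERTK-transfected 293A cells after 1 h exposure to an 8-point compound series, serum-free, 0.3% DMSO. Activity normalized between DMSO-treated (100%) and reference inhibitor-treated (0%) lysates; IC50 via 4-parameter nonlinear regression.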

Assay [2] deals with KDR (Homo sapiens, UniProt P35968). Nature of the assay: KDR autophosphorylation ELISA in HUVEC cells. Format: cell-based. More on the design: endogenous in cells; host or cells: HUVEC (Lonza #C2519A). The conditions noted are these: Table 3 Cellular Activities, VEGF165-stimulated, phospho-KDR ELISA. The essentials:
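Compound pretreatment (1 h, 0.3% DMSO) of serum-starved HUVEC preceded a 5 min pulse of 100 ng/mL VEGF165, after which cells were lysed. Phospho-KDR was quantified by ELISA relative to stimulated and unstimulated controls.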

Molecules are shown by their SMILES. pIC50: −log10 of the molar value. Counter-ions that a name gives are not always drawn.

Chain of KDR (P35968 20-1356): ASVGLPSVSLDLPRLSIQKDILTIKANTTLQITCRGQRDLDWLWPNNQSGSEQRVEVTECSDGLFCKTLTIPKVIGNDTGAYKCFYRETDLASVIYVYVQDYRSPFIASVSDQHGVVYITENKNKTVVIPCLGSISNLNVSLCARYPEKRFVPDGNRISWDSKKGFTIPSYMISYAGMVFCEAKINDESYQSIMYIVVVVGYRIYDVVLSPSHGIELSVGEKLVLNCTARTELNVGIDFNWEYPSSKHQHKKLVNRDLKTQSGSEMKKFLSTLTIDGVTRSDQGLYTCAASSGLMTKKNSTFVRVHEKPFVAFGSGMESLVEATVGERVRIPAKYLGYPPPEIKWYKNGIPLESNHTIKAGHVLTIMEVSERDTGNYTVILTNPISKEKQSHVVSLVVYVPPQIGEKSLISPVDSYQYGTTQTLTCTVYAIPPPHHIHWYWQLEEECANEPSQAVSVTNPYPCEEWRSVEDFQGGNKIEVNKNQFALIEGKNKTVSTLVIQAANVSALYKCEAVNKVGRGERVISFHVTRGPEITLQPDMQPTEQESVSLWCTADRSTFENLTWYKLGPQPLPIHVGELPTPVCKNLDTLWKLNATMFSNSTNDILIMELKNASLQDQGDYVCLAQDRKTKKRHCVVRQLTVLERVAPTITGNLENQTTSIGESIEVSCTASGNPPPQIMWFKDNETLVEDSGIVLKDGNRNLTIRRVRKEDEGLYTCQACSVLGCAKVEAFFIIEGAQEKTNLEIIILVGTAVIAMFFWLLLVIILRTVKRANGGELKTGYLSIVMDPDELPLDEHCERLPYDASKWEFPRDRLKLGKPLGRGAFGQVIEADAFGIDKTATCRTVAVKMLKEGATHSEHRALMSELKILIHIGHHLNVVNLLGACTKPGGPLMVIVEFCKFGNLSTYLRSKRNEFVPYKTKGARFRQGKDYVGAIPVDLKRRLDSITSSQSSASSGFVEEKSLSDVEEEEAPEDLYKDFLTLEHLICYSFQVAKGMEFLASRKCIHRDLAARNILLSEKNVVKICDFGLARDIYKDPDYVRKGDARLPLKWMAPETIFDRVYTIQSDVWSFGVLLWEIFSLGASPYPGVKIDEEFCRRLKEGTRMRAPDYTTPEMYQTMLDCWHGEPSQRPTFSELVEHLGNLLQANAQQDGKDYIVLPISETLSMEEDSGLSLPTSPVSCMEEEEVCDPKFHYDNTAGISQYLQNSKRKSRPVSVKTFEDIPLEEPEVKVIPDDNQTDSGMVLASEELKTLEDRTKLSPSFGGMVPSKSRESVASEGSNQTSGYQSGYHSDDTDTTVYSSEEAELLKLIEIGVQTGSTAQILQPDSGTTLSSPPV

As to `CCOc1ccn(-c2ccc(F)cn2)c(=O)c1C(=O)Nc1ccc(Oc2ccnc3cc(OC)c(OC)nc23)cc1` [Compound 244, N-[4-[(6,7-Dimethoxy-1,5-naphthyridin-4-yl)oxy]phenyl]-4-ethoxy-1-(5-fluoropyridin-2-yl)-2-oxopyridine-3-carboxamide], the values for the pIC50 in assay [1] and in assay [2] were not below 7.00 and 6.00 to 6.52, respectively.
In the same order, the values of `COc1cc2nccc(Oc3ccc(NC(=O)c4c(C)cc(C)n(-c5ccc(F)cn5)c4=O)cc3)c2nc1OC` [Compound 245, N-[4-[(6,7-Dimethoxy-1,5-naphthyridin-4-yl)oxy]phenyl]-1-(5-fluoropyridin-2-yl)-4,6-dimethyl-2-oxopyridine-3-carboxamide] are not below 7.00 and not below 7.00.
In the same order, the values of `COc1cc2nccc(Oc3ccc(NC(=O)c4nccn(-c5ccc(F)cn5)c4=O)cc3F)c2nc1OC` [Compound 246, N-[4-[(6,7Dimethoxy-1,5-naphthyridin-4-yl)oxy]-3-fluorophenyl]-4-(5-fluoropyridin-2-yl)-3-oxopyrazine-2-carboxamide] are not below 7.00 and 6.52 to 7.00.
In the same order, the values of `COc1cc2nccc(Oc3ccc(NC(=O)c4cccn(-c5cc[n+]([O-])cc5)c4=O)cc3F)c2nc1OC` [Compound 247, N-[4-[(6,7-Dimethoxy-1,5-naphthyridin-4-yl)oxy]-3-fluorophenyl]-1-(1-oxidopyridin-1-ium-4-yl)-2-oxopyridine-3-carboxamide hydrochloride] are not below 7.00 and 6.52 to 7.00.
For `COc1cc2nccc(Oc3ccc(NC(=O)c4cccn(-c5ccnc(O)c5)c4=O)cc3F)c2nc1OC` [Compound 248, N-[4-[(6,7-Dimethoxy-1,5-naphthyridin-4-yl)oxy]-3-fluorophenyl]-1-(2-hydroxypyridin-4-yl)-2-oxopyridine-3-carboxamide hydrochloride], the pIC50 in assay [1] and in assay [2] was 6.00 to 6.52 in each case.
`COCCOc1cc2nccc(Oc3ccc(NC(=O)c4c(C)n(C)c(C)c(-c5ccco5)c4=O)cc3F)c2nc1OC` [Compound 254, N-[3-Fluoro-4-[[6-methoxy-7-(2-methoxyethoxy)-1,5-naphthyridin-4-yl]oxy]phenyl]-5-(furan-2-yl)-1,2,6-trimethyl-4-oxopyridine-3-carboxamide]: the pIC50 in assay [1] and in assay [2] was not below 7.00 each time.
Regarding `COc1cc2nccc(Oc3ccc(NC(=O)c4cnc(C)c(-c5ccco5)c4O)cc3)c2nc1OC` [Compound 255, N-[4-[(6,7-Dimethoxy-1,5-naphthyridin-4-yl)oxy]phenyl]-5-(furan-2-yl)-4-hydroxy-6-methylpyridine-3-carboxamide], the negative logarithm of the IC50 (pIC50) in assay [1] and in assay [2] was not below 7.00 throughout.
Turning to `COc1cc2nccc(Oc3ccc(NC(=O)c4cnc(C)c(-c5cccs5)c4O)cc3)c2nc1OC` [Compound 256, N-[4-[(6,7-Dimethoxy-1,5-naphthyridin-4-yl)oxy]phenyl]-4-hydroxy-6-methyl-5-thiophen-2-ylpyridine-3-carboxamide], the pIC50 in assay [1] and in assay [2] was not below 7.00 in each case.
Turning to `COc1cnc2c(Oc3ccc(NC(=O)c4cnc(C)c(-c5cccs5)c4O)cc3)ccnc2c1` [Compound 257, 4-Hydroxy-N-[4-[(7-methoxy-1,5-naphthyridin-4-yl)oxy]phenyl]-6-methyl-5-thiophen-2-ylpyridine-3-carboxamide], the pIC50 in assay [1] and in assay [2] was not below 7.00 each time.
For `COc1cc2nccc(Oc3ccc(NC(=O)c4cnc(C)c(-c5ccco5)c4O)cc3)c2cc1OC` [Compound 258, N-[4-(6,7-Dimethoxyquinolin-4-yl)oxyphenyl]-5-(furan-2-yl)-4-hydroxy-6-methylpyridine-3-carboxamide], the pIC50 in assay [1] and in assay [2] was not below 7.00 each time.
On to `COc1cc2nccc(Oc3ccc(NC(=O)c4cnc(C)c(-c5ccco5)c4O)cc3F)c2cc1OC` [Compound 259, N-[4-(6,7-Dimethoxyquinolin-4-yl)oxy-3-fluorophenyl]-5-(furan-2-yl)-4-hydroxy-6-methylpyridine-3-carboxamide], for which the pIC50 in assay [1] and in assay [2] was not below 7.00 throughout.
As for `COCCOc1cc2nccc(Oc3ccc(NC(=O)c4cnc(C)c(-c5ccco5)c4O)cc3F)c2nc1OC` [Compound 260, N-[3-Fluoro-4-[[6-methoxy-7-(2-methoxyethoxy)-1,5-naphthyridin-4-yl]oxy]phenyl]-5-(furan-2-yl)-4-hydroxy-6-methylpyridine-3-carboxamide], the pIC50 in assay [1] and in assay [2] was not below 7.00 in each case.
As to `COc1cc2nccc(Oc3ccc(NC(=O)c4c(C)n(C)c(C)c(-c5cc6ccccc6o5)c4=O)cc3F)c2nc1OC` [Compound 261, 5-(1-Benzofuran-2-yl)-N-[4-[(6,7-dimethoxy-1,5-naphthyridin-4-yl)oxy]-3-fluorophenyl]-1,2,6-trimethyl-4-oxopyridine-3-carboxamide], the pIC50 in assay [1] is 6.52 to 7.00; in assay [2], 6.00 to 6.52.
In the same order, the values of `COc1cc2nccc(Oc3ccc(NC(=O)c4c(C)n(C)c(C)c(-c5coc6ccccc56)c4=O)cc3F)c2nc1OC` [Compound 262, 5-(1-Benzofuran-3-yl)-N-[4-[(6,7-dimethoxy-1,5-naphthyridin-4-yl)oxy]-3-fluorophenyl]-1,2,6-trimethyl-4-oxopyridine-3-carboxamide] are not below 7.00 and 6.00 to 6.52.
In the same order, the values of `COCCOc1cc2nccc(Oc3ccc(NC(=O)c4c(C)n(C)c(C)c(-c5cc6ccccc6o5)c4=O)cc3F)c2nc1OC` [Compound 263, 5-(1-Benzofuran-2-yl)-N-[3-fluoro-4-[[6-methoxy-7-(2-methoxyethoxy)-1,5-naphthyridin-4-yl]oxy]phenyl]-1,2,6-trimethyl-4-oxopyridine-3-carboxamide] are 6.52 to 7.00 and 6.00 to 6.52.
In the same order, the values of `COCCOc1cc2nccc(Oc3ccc(NC(=O)c4c(C)n(C)c(C)c(-c5coc6ccccc56)c4=O)cc3F)c2nc1OC` [Compound 264, 5-(1-Benzofuran-3-yl)-N-[3-fluoro-4-[[6-methoxy-7-(2-methoxyethoxy)-1,5-naphthyridin-4-yl]oxy]phenyl]-1,2,6-trimethyl-4-oxopyridine-3-carboxamide] are not below 7.00 and 6.00 to 6.52.
As for `COc1cc2nccc(Oc3ccc(NC(=O)c4cnc(C)c(-c5ccco5)n4)cc3F)c2nc1OC` [Compound 269, N-[4-[(6,7-Dimethoxy-1,5-naphthyridin-4-yl)oxy]-3-fluorophenyl]-6-(furan-2-yl)-5-methylpyrazine-2-carboxamide], the pIC50 in assay [1] is not below 7.00; in assay [2], 6.00 to 6.52.
In the same order, the values of `COc1cc2nccc(Oc3ccc(NC(=O)c4c5n(cc(-c6ccco6)c4=O)CCOC5)cc3F)c2nc1OC` [Compound 297, N-[4-[(6,7-Dimethoxy-1,5-naphthyridin-4-yl)oxy]-3-fluorophenyl]-7-(furan-2-yl)-8-oxo-3,4-dihydro-1H-pyrido[2,1-c][1,4]oxazine-9-carboxamide] are not below 7.00 and 6.00 to 6.52.
In the same order, the values of `COc1cc2nccc(Oc3ccc(NC(=O)c4c5n(cc(-c6ccco6)c4=O)CCOC5)cc3)c2nc1OC` [Compound 298, N-[4-[(6,7-Dimethoxy-1,5-naphthyridin-4-yl)oxy]phenyl]-7-(furan-2-yl)-8-oxo-3,4-dihydro-1H-pyrido[2,1-c][1,4]oxazine-9-carboxamide] are not below 7.00 and 6.00 to 6.52.
For the molecule `COc1cc2nccc(Oc3ccc(NC(=O)c4c5n(cc(-c6cccs6)c4=O)CCOC5)cc3)c2nc1OC` [Compound 299, N-[4-[(6,7-Dimethoxy-1,5-naphthyridin-4-yl)oxy]phenyl]-8-oxo-7-thiophen-2-yl-3,4-dihydro-1H-pyrido[2,1-c][1,4]oxazine-9-carboxamide], the pIC50 is not below 7.00 in assay [1] and 6.00 to 6.52 in assay [2].

Usually pIC50 stands for the IC50 on a negative log10 scale, so that one unit is a factor of ten. Low values mean a large IC50, high ones a small IC50.
